Reference: ChEMBL document CHEMBL1201861, “Genomics of Drug Sensitity in Cancer screening data, Wellcome Trust Sanger Institute”

Experiments:
Assay in all cases: cells
T84 = format: functional, cell-based; conditions: Homo sapiens;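 also: growth inhibition measured with a cell viability readout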
Description: SANGER: Inhibition of human T84 cell growth in a cell viability assay.

KU-19-19 = format: functional, cell-based; conditions: Homo sapiens
Description: SANGER: Inhibition of human KU-19-19 cell growth in a cell viability assay.

MDA-MB-231 = format: functional, cell-based; conditions: Homo sapiens
Description: SANGER: Inhibition of human MDA-MB-231 cell growth in a cell viability assay.

YKG-1 = format: functional, cell-based; conditions: Homo sapiens;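 also: cell growth inhibition, read out with a viability assay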
Description: SANGER: Inhibition of human YKG-1 cell growth in a cell viability assay.

OE19 = format: functional, cell-based; conditions: Homo sapiens;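 also: growth inhibition of OE19 cells, measured through a cell viability read-out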
Description: SANGER: Inhibition of human OE19 cell growth in a cell viability assay.

769-P = format: functional, cell-based; conditions: Homo sapiens
Description: SANGER: Inhibition of human 769-P cell growth in a cell viability assay.

HuP-T4 = format: functional, cell-based; conditions: Homo sapiens;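 also: cell viability assay measuring how much HuP-T4 cell growth is inhibited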
Description: SANGER: Inhibition of human HuP-T4 cell growth in a cell viability assay.

SW626 = format: functional, cell-based; conditions: Homo sapiens;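 also: growth inhibition of SW626 cells, measured with a cell viability assay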
Description: SANGER: Inhibition of human SW626 cell growth in a cell viability assay.

A2780 = format: functional, cell-based; conditions: Homo sapiens;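 also: growth inhibition of A2780 cells, read out with a cell viability assay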
Description: SANGER: Inhibition of human A2780 cell growth in a cell viability assay.

DMS-79 = format: functional, cell-based, Homo sapiens; conditions: Homo sapiens, DMS-79;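 also: growth inhibition measured with a cell viability assay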
Description: SANGER: Inhibition of human DMS-79 cell growth in a cell viability assay.

SW837 = format: functional, cell-based; conditions: Homo sapiens;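 also: growth inhibition of SW837 cells, determined with a cell viability assay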
Description: SANGER: Inhibition of human SW837 cell growth in a cell viability assay.

Huh-7 = format: functional, cell-based; conditions: Homo sapiens;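 also: HuH-7 cell growth inhibition, read out with a cell viability assay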
Description: SANGER: Inhibition of human HuH-7 cell growth in a cell viability assay.

HSC-2 = format: functional, cell-based; conditions: Homo sapiens;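 also: growth inhibition of human HSC-2 cells, read out by a cell viability assay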
Description: SANGER: Inhibition of human HSC-2 cell growth in a cell viability assay.

DBTRG-05MG = format: functional, cell-based; conditions: Homo sapiens;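 also: cell viability assay measuring growth inhibition of human DBTRG-05MG cells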
Description: SANGER: Inhibition of human DBTRG-05MG cell growth in a cell viability assay.

RMG-I = format: functional, cell-based; conditions: Homo sapiens;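 also: growth inhibition of human RMG-I cells, read out with a cell viability assay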
Description: SANGER: Inhibition of human RMG-I cell growth in a cell viability assay.

KYSE-410 = format: functional, cell-based; conditions: Homo sapiens;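 also: growth inhibition of KYSE-410 cells, measured through a cell viability readout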
Description: SANGER: Inhibition of human KYSE-410 cell growth in a cell viability assay.

MeWo = format: functional, cell-based; conditions: Homo sapiens;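 also: growth inhibition of MeWo cells, determined by a cell viability readout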
Description: SANGER: Inhibition of human Mewo cell growth in a cell viability assay.

MKN-7 = format: functional, cell-based; conditions: Homo sapiens;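 also: growth inhibition of MKN-7 cells, read out with a cell viability assay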
Description: SANGER: Inhibition of human MKN7 cell growth in a cell viability assay.

RPMI-2650 = format: functional, cell-based; conditions: Homo sapiens
Description: SANGER: Inhibition of human RPMI-2650 cell growth in a cell viability assay.

NCI-H1755 = format: functional, cell-based; conditions: Homo sapiens;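 also: cell viability readout used to measure growth inhibition of NCI-H1755 cells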
Description: SANGER: Inhibition of human NCI-H1755 cell growth in a cell viability assay.

HCC 2998 = format: functional, cell-based; conditions: Homo sapiens;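 also: growth inhibition of human HCC2998 cells, measured with a cell viability read-out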
Description: SANGER: Inhibition of human HCC2998 cell growth in a cell viability assay.

HO-1-N-1 = format: functional, cell-based; conditions: Homo sapiens;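 also: growth inhibition of human HO-1-N-1 cells, read out with a cell viability assay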
Description: SANGER: Inhibition of human HO-1-N-1 cell growth in a cell viability assay.

SW1990 = format: functional, cell-based; conditions: Homo sapiens;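 also: cell growth inhibition determined with a viability assay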
Description: SANGER: Inhibition of human SW1990 cell growth in a cell viability assay.

WM-115 = format: functional, cell-based; conditions: Homo sapiens
Description: SANGER: Inhibition of human WM-115 cell growth in a cell viability assay.

SK-N-AS = format: functional, cell-based; conditions: Homo sapiens;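 also: growth inhibition of human SK-N-AS cells, measured with a cell viability assay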
Description: SANGER: Inhibition of human SK-N-AS cell growth in a cell viability assay.

PC-3 = format: functional, cell-based; conditions: Homo sapiens;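 also: cell viability assay measuring growth inhibition of PC-3 cells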
Description: SANGER: Inhibition of human PC-3 cell growth in a cell viability assay.

BHT-101 = format: functional, cell-based; conditions: Homo sapiens
Description: SANGER: Inhibition of human BHT-101 cell growth in a cell viability assay.

NUGC-3 = format: functional, cell-based; conditions: Homo sapiens;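 also: growth inhibition of human NUGC-3 cells, read out with a cell viability assay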
Description: SANGER: Inhibition of human NUGC-3 cell growth in a cell viability assay.

BEN = format: functional, cell-based; conditions: Homo sapiens;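 also: growth inhibition of the BEN cell line, read out with a cell viability assay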
Description: SANGER: Inhibition of human BEN cell growth in a cell viability assay.

RD = format: functional, cell-based; conditions: Homo sapiens
Description: SANGER: Inhibition of human RD cell growth in a cell viability assay.

NCI-H1437 = format: functional, cell-based; conditions: Homo sapiens;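 also: growth inhibition of human NCI-H1437 cells, read out by a cell viability assay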
Description: SANGER: Inhibition of human NCI-H1437 cell growth in a cell viability assay.

SW780 = format: functional, cell-based; conditions: Homo sapiens;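 also: growth inhibition of the cells, read out with a cell viability assay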
Description: SANGER: Inhibition of human SW780 cell growth in a cell viability assay.

UMC-11 = format: functional, cell-based; conditions: Homo sapiens;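 also: growth inhibition of UMC-11 cells, read out with a cell viability assay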
Description: SANGER: Inhibition of human UMC-11 cell growth in a cell viability assay.

BPH-1 = format: functional, cell-based; conditions: Homo sapiens;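 also: cell viability assay measuring growth inhibition of human BPH-1 cells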
Description: SANGER: Inhibition of human BPH-1 cell growth in a cell viability assay.

TYK-nu = format: functional, cell-based; conditions: Homo sapiens;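 also: growth inhibition of human TYK-nu cells, read out by a cell viability assay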
Description: SANGER: Inhibition of human TYK-nu cell growth in a cell viability assay.

MEL-JUSO = format: functional, cell-based; conditions: Homo sapiens;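 also: growth inhibition of human MEL-JUSO cells, read out with a cell viability assay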
Description: SANGER: Inhibition of human MEL-JUSO cell growth in a cell viability assay.

CAL-72 = format: functional, cell-based; conditions: Homo sapiens;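 also: cell viability assay measuring inhibition of proliferation in the CAL-72 cell line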
Description: SANGER: Inhibition of human CAL-72 cell growth in a cell viability assay.

SW1417 = format: functional, cell-based; conditions: Homo sapiens;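 also: growth inhibition of human SW1417 cells, read out with a cell viability assay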
Description: SANGER: Inhibition of human SW1417 cell growth in a cell viability assay.

OAW-28 = format: functional, cell-based; conditions: Homo sapiens;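 also: growth inhibition of OAW-28 cells, read out with a cell viability assay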
Description: SANGER: Inhibition of human OAW-28 cell growth in a cell viability assay.

NCI-H522 = format: functional, cell-based; conditions: Homo sapiens;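 also: cell viability assay measuring growth inhibition of human NCI-H522 cells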
Description: SANGER: Inhibition of human NCI-H522 cell growth in a cell viability assay.

SMILES | IC50 (T84) | IC50 (KU-19-19) | IC50 (MDA-MB-231) | IC50 (YKG-1) | IC50 (OE19) | IC50 (769-P) | IC50 (HuP-T4) | IC50 (SW626) | IC50 (A2780) | IC50 (SW837) | IC50 (Huh-7) | IC50 (HSC-2) | IC50 (DBTRG-05MG) | IC50 (RMG-I) | IC50 (KYSE-410) | IC50 (MeWo) | IC50 (MKN-7) | IC50 (RPMI-2650) | IC50 (NCI-H1755) | IC50 (HCC 2998) | other results
CN(NC(=O)CC(=O)NN(C)C(=S)c1ccccc1)C(=S)c1ccccc1 [ELESCLOMOL] | > 200 nM | 7.09 nM | 19 nM | 12.6 nM | > 200 nM | 9.82 nM | 20.7 nM | 54 nM | 0.594 nM | 107 nM | 17.6 nM | 107 nM | 9.77 nM | > 200 nM | 19.7 nM | 26.3 nM | 61 nM | 34.1 nM | 13.3 nM | 111 nM | IC50 (DMS-79): > 200 nM; IC50 (HO-1-N-1): 24.5 nM; IC50 (SW1990): 4.32 nM; IC50 (WM-115): 34 nM; IC50 (SK-N-AS): 30 nM; IC50 (PC-3): 7.89 nM; IC50 (BHT-101): 3.72 nM; IC50 (NUGC-3): 7.33 nM; IC50 (BEN): 116 nM; IC50 (RD): 13.1 nM; IC50 (NCI-H1437): 87.7 nM; IC50 (SW780): 30.3 nM; IC50 (UMC-11): > 200 nM; IC50 (BPH-1): 83.1 nM; IC50 (TYK-nu): 12.4 nM; IC50 (MEL-JUSO): 10.6 nM; IC50 (CAL-72): 3.02 nM; IC50 (SW1417): > 200 nM; IC50 (OAW-28): > 200 nM
NC(=O)c1ccc(N(C(N)=O)c2c(F)cccc2F)nc1-c1ccc(F)cc1F [VX-702] | > 2000 nM | > 2000 nM | > 2000 nM | > 2000 nM | > 2000 nM | > 2000 nM | > 2000 nM | > 2000 nM | > 2000 nM | > 2000 nM | > 2000 nM | > 2000 nM | > 2000 nM | > 2000 nM | > 2000 nM | > 2000 nM | > 2000 nM | > 2000 nM | > 2000 nM | > 2000 nM | IC50 (DMS-79): > 2000 nM; IC50 (HO-1-N-1): > 2000 nM; IC50 (SW1990): > 2000 nM; IC50 (WM-115): > 2000 nM; IC50 (SK-N-AS): > 2000 nM; IC50 (PC-3): > 2000 nM; IC50 (BHT-101): > 2000 nM; IC50 (NUGC-3): > 2000 nM; IC50 (BEN): > 2000 nM; IC50 (RD): > 2000 nM; IC50 (NCI-H1437): > 2000 nM; IC50 (SW780): > 2000 nM; IC50 (UMC-11): > 2000 nM; IC50 (BPH-1): > 2000 nM; IC50 (TYK-nu): > 2000 nM; IC50 (MEL-JUSO): > 2000 nM; IC50 (CAL-72): > 2000 nM; IC50 (SW1417): > 2000 nM; IC50 (OAW-28): > 2000 nM
NC(=O)Nc1cc(-c2cccc(F)c2)sc1C(=O)N[C@H]1CCCNC1 [AZD-7762] | > 2000 nM | > 2000 nM | 1600 nM | 1580 nM | > 2000 nM | 223 nM | 469 nM | 506 nM | 432 nM | > 2000 nM | 1400 nM | 873 nM | > 2000 nM | 1910 nM | 1040 nM | 304 nM | 1210 nM | > 2000 nM | 273 nM | 317 nM | IC50 (DMS-79): > 2000 nM; IC50 (HO-1-N-1): 1140 nM; IC50 (SW1990): 384 nM; IC50 (WM-115): > 2000 nM; IC50 (SK-N-AS): 188 nM; IC50 (PC-3): > 2000 nM; IC50 (BHT-101): 1150 nM; IC50 (NUGC-3): > 2000 nM; IC50 (BEN): > 2000 nM; IC50 (RD): > 2000 nM; IC50 (NCI-H1437): > 2000 nM; IC50 (SW780): 1200 nM; IC50 (UMC-11): 1770 nM; IC50 (BPH-1): > 2000 nM; IC50 (TYK-nu): 281 nM; IC50 (MEL-JUSO): 131 nM; IC50 (CAL-72): > 2000 nM; IC50 (SW1417): 736 nM; IC50 (OAW-28): 1850 nM
Cc1ccc(-n2nc(C(C)(C)C)cc2NC(=O)Nc2ccc(OCCN3CCOCC3)c3ccccc23)cc1 [DORAMAPIMOD] | > 10000 nM | > 10000 nM | > 10000 nM | > 10000 nM | > 10000 nM | > 10000 nM | > 10000 nM | > 10000 nM | > 10000 nM | > 10000 nM | > 10000 nM | > 10000 nM | > 10000 nM | > 10000 nM | > 10000 nM | > 10000 nM | > 10000 nM | > 10000 nM | > 10000 nM | > 10000 nM | IC50 (HO-1-N-1): > 10000 nM; IC50 (SW1990): > 10000 nM; IC50 (WM-115): > 10000 nM; IC50 (SK-N-AS): > 10000 nM; IC50 (PC-3): > 10000 nM; IC50 (BHT-101): > 10000 nM; IC50 (NUGC-3): > 10000 nM; IC50 (BEN): > 10000 nM; IC50 (RD): > 10000 nM; IC50 (NCI-H1437): > 10000 nM; IC50 (SW780): > 10000 nM; IC50 (UMC-11): > 10000 nM; IC50 (BPH-1): > 10000 nM; IC50 (NCI-H522): > 10000 nM; IC50 (TYK-nu): > 10000 nM; IC50 (MEL-JUSO): > 10000 nM; IC50 (CAL-72): > 10000 nM; IC50 (SW1417): > 10000 nM; IC50 (OAW-28): > 10000 nM
CC1=C(/C=C/C(C)=C/C=C/C(C)=C/C(=O)O)C(C)(C)CCC1 [TRETINOIN] | > 10000 nM | > 10000 nM | > 10000 nM | > 10000 nM | > 10000 nM | > 10000 nM | > 10000 nM | > 10000 nM | > 10000 nM | > 10000 nM | > 10000 nM | > 10000 nM | > 10000 nM | > 10000 nM | > 10000 nM | > 10000 nM | > 10000 nM | > 10000 nM | > 10000 nM | > 10000 nM | IC50 (DMS-79): > 10000 nM; IC50 (HO-1-N-1): > 10000 nM; IC50 (SW1990): > 10000 nM; IC50 (WM-115): > 10000 nM; IC50 (SK-N-AS): > 10000 nM; IC50 (PC-3): > 10000 nM; IC50 (BHT-101): > 10000 nM; IC50 (NUGC-3): > 10000 nM; IC50 (BEN): > 10000 nM; IC50 (RD): > 10000 nM; IC50 (NCI-H1437): > 10000 nM; IC50 (SW780): > 10000 nM; IC50 (UMC-11): > 10000 nM; IC50 (BPH-1): 7440 nM; IC50 (TYK-nu): > 10000 nM; IC50 (MEL-JUSO): > 10000 nM; IC50 (CAL-72): > 10000 nM; IC50 (SW1417): > 10000 nM; IC50 (OAW-28): > 10000 nM
